The IC50 is the midpoint of a concentration-inhibition curve. The Cmax is the maximum level reached in the sampled fluid or tissue. As a reminder, the AUC is concentration integrated over time.

We go through 15 compounds from US20030083315A1, “Human chymase inhibitors” (priority 2000, published 2003).

Series [1] addresses T1, recombinant human mast cell chymase (Homo sapiens, UniProt P23946).
T1 construct: made in house; host or cells: insect cell (Tn 5) infected with recombinant baculovirus
T1 sequence (P23946 22-247): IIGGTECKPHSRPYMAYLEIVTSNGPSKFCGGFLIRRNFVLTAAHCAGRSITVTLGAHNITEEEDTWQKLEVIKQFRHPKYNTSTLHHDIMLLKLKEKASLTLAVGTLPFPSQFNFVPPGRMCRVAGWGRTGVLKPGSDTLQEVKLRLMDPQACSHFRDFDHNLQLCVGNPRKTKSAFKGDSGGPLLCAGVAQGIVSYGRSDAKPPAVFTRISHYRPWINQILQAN
Kind of series: Inhibition of enzyme activity of recombinant human mast cell chymase. Format: biochemical. The note with it: active-type human mast cell chymase, substrate succinyl-alanyl-histidyl-prolyl-phenylalanylparanitroanilide 0.5 mM, room temperature 5 min, absorption at 405. As for the experimental part:
A recombinant pro-type human mast cell chymase was prepared according to the report by Urata et al., Journal of Biological Chemistry 17173, Vol. 266 (1991). That is, the product was purified from the supernatant of the culture broth of insect cell (Tn 5) infected with a recombinant baculovirus containing a cDNA encoding a human mast cell chymase by heparin sepharose (manufactured by Pharmacia Co.). The obtained chymase was further activated according to the report of Murakami et al., Journal of Biological Chemistry, 2218, Vol. 270 (1995), and then it was purified by heparin sepharose to yield an active-type human mast cell chymase.
To 50 μl of buffer A (0.5 to 3.0 M NaCl, 50 mM tris-HCl, pH 8.0) containing 1 to 5 ng of the active-type human mast cell chymase obtained by Example 19 was added 2 μl of a DMSO solution containing a compound of the present invention, and the mixture was made to react at room temperature for 5 min after the addition of 50 μl of the buffer A containing 0.5 mM of succinyl-alanyl-histidyl-prolyl-phenylalanylparanitroanilide (Bacchem Co.) as a substrate. The inhibition activity was determined by measuring the variation of the absorption at 405 nm with the passage of time.

Series [2] in a line: Blood concentration after forced oral administration into rat stomach. Format: in vivo. The note with it: SD male rat, 30 mg/kg forced into the stomach under starvation, serum, unchanged compound by HPLC; for AUC: read-out: AUC (extrapolation). As for the experimental part: By using a SD male rat, a compound having the compound number of 121, 127 or 363 was forcedly administered at a dose of 30 mg/kg into the stomach under starvation, and blood samples were taken out at 30 min, 1 hr, 2 hr, 4 hr and 8 hr after the administration. Directly after the collection of the blood samples, the serum component was separated, the compound of the present invention was extracted by a general method of solid extraction, and the obtained sample was subjected to HPLC analysis by using an ODS column to measured the amount of the unchanged compound.

Series [3] in a line: In vitro metabolic test using hepatic microsome (Ms). Format: in vitro ADME. The settings on record: hepatic microsome 1.0 mg/mL, substrate 5.0 μM, 37° C.; for MR (maximum speed of metabolism): NADPH 1.0 mM. As for the experimental part: Letting the amount of the unchanged body at the initial concentration (reaction time 0 min) 100%, the speed of metabolism is determined from the amount of the decrease of the unchanged body at each reaction time, and the maximum speed of metabolism (MR) is evaluated.
MR=(the substrate concentration at reaction time 0 min−the substance concentration after the reaction)÷reaction time÷protein concentration (nmol/min/mg-protein)

As for `Cc1cccc2cccc(Cn3c(SCCCC(=O)O)nc4ccccc43)c12` [Compound No. 492, 4-(1-((8-methyl-1-naphthyl)methyl)benzimidazole-2-ylthio)butyric Acid], the half-maximal inhibitory concentration (IC50) in series [1] lay within 0.001 to 0.01 µM. Turning to `Cc1cc2nc(SCCCC(=O)O)n(Cc3cccc4cccc(C)c34)c2cc1C` [Compound No. 493, 4-(1-((8-methyl-1-naphthyl)methyl)-5,6-dimethylbenzimidazole-2-ylthio)-butyric Acid], the IC50 in series [1] is 0.001 to 0.01 µM. Take `Cc1ccc(C)c(Cn2c(SCCCC(=O)O)nc3cc(C#N)ccc32)c1` [Compound No. 337, 4-(1-((2,5-dimethylphenyl)methyl)-5-cyanobenzimidazole-2-ylthio)butyric Acid]: the IC50 in series [1] lay within 0.01 to 0.1 µM. On to `CCOc1ccc2c(c1)nc(SCCCC(=O)O)n2Cc1cccc2ccccc12` [Compound No. 128, 4-(1-((1-naphthyl)methyl)-5-ethoxybenzimidazole-2-ylthio)butyric acid], for which the IC50 in series [1] was in the range of 0.01 to 0.1 µM. Regarding `COc1ccc2c(c1)nc(SCCCC(=O)O)n2Cc1cccc2ccccc12` [Compound No. 127, 4-((1-((1-naphthyl)methyl)-5-methoxybenzimidazole)-2-ylthio)butyric acid], in series [1], the IC50 is 0.001 to 0.01 µM. In series [2], the highest level (Cmax) was 76 µg/mL and the AUC was 181 µg·h/mL. Also, in series [3], the “Remaining Rate (%) of Substrate at 30 min” value turned out to be 21.6% and the “MR (maximum speed of metabolism)” value was 0.190 nmol/min/mg-protein. The like results for `N#Cc1ccc2c(c1)nc(SCCCC(=O)O)n2Cc1cccc2ccccc12` [Compound No. 363, 4-(1-((1-naphthyl)methyl)-5-cyanobenzimidazole-2-ylthio)butyric acid] were, in that order, 0.01 to 0.1 µM, 77 µg/mL, 182 µg·h/mL, 57.6% and 0.147 nmol/min/mg-protein. Turning to `O=C(O)CCCSc1nc2ccccc2n1Cc1cccc2ccccc12` [Compound No. 121, 4-(1-((1-naphthyl)methyl)benzimidazole-2-ylthio)butyric acid], the IC50 in series [1] lay in the range of 0.001 to 0.01 µM. Moreover, in series [2], the Cmax was 122 µg/mL and the AUC is 226 µg·h/mL. For the same compound, in series [3], the “Remaining Rate (%) of Substrate at 30 min” value stood at 56.6% and the “MR (maximum speed of metabolism)” value is given as 0.235 nmol/min/mg-protein.

Consider `Cc1cc2nc(SCCCC(=O)O)n(Cc3cccc4ccccc34)c2cc1C` [Compound No. 129, 4-(1-((1-naphthyl)methyl)-5,6-dimethylbenzimidazole-2-ylthio)butyric acid], for which the IC50 in series [1] was 0.001 to 0.01 µM. Still for that read-out and setting: the figure for `O=C(O)CCSc1nc2ccccc2n1Cc1cccc2ccccc12` [Compound No. 496, 3-(1-((1-naphthyl)methyl)-benzimidazole-2-ylthio)propanoic acid] is 0.01 to 0.1 µM; for `O=C(O)CCCSc1nc2cc(C(F)(F)F)ccc2n1Cc1cccc2ccccc12` [Compound No. 126, 4-(1-((1-naphthyl)methyl)-5-trifluoromethylbenzimidazole-2-ylthio)butyric Acid] it is 0.01 to 0.1 µM. In the case of `Cc1cc2nc(S(=O)(=O)CCCC(=O)O)n(Cc3cccc4ccccc34)c2cc1C` [Compound No. 498, 4-(1-((1-naphthyl)methyl)-5,6-dimethylbenzimidazole-2-ylsulfonyl)butyric acid], in series [1], the IC50 lay within 0.01 to 0.1 µM. Consider `O=C(O)CCCCSc1nc2ccccc2n1Cc1cccc2ccccc12` [compound 497, 5-(1-((1-naphthyl)methyl)-benzimidazole-2-ylthio)valeric acid], for which, in series [1], the IC50 fell in the range of 0.01 to 0.1 µM.

Take `O=C(O)CCCSc1nc2cc(F)c(F)cc2n1Cc1cccc2ccccc12` [Compound No. 131, 4-(1-((1-naphthyl)methyl)-5,6-difluorobenzimidazole-2-ylthio)butyric acid]: in series [1], the IC50 lay in the range of 0.01 to 0.1 µM. Turning to `CC(C)(CC(=O)O)C(=O)CSc1nc2ccccc2n1Cc1cccc2ccccc12` [Compound No. 494, 5-(1-((1-nanhthyl)methyl)benzimidazole-2-ylthio)-4-oxo-3,3-dimethylvaleric Acid], the IC50 in series [1] lay in the range of 0.01 to 0.1 µM. As for `COc1ccc2c(c1)nc(SCCCC(=O)O)n2Cc1cc(C)ccc1C` [Compound No. 495, 4-(1-((2,5-dimethylphenil)methyl)-5-methoxybenzimidazole-2-ylthio)butyric Acid], the 50% inhibitory concentration (IC50) in series [1] is 0.01 to 0.1 µM.
